# From paper PMC9297976 (Journal of Applied Toxicology, 2021)
# What was measured:
# [1] = molecular target: T1, medaka Esr1 (mEsr1) (Oryzias latipes, UniProt P50241); test: cell-based; parameters: species or system Japanese medaka (Oryzias latipes); settings: mode of action in which EC50 or PC10 was obtained in RGA
# T1 sequence (P50241 1-620): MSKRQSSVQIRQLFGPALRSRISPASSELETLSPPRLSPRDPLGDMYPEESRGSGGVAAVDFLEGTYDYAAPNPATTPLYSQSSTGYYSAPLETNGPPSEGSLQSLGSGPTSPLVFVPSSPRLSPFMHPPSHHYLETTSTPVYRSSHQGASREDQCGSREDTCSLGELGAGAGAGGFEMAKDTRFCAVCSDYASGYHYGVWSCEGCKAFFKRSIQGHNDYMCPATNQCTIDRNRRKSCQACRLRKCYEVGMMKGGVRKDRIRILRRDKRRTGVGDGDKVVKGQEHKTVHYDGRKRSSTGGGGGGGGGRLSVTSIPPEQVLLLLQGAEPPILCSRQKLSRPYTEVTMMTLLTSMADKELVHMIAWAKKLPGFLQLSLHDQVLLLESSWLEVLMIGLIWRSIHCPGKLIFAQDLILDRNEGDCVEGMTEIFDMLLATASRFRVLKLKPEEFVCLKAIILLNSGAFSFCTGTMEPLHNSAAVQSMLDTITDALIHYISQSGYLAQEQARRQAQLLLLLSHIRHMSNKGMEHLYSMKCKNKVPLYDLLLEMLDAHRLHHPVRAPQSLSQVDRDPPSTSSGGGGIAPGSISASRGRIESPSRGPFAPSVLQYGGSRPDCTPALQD
# [2] = molecular target: T1, medaka Esr1 (mEsr1); test: Medaka Esr1 reporter gene assay, antagonist assay; type: cell-based, Japanese medaka (Oryzias latipes); settings: E2 spiked at 1.0 nM (B); MAC = 1.0 × 10^−5 M
# [3] = molecular target: T2, medaka ARβ (mArβ) (Oryzias latipes, UniProt D1MV73); test: Medaka ARβ reporter gene assay, agonist assay; type: cell-based, Japanese medaka (Oryzias latipes); settings: MAC = 1.0 × 10^−4 M
# T2 sequence (D1MV73 1-744): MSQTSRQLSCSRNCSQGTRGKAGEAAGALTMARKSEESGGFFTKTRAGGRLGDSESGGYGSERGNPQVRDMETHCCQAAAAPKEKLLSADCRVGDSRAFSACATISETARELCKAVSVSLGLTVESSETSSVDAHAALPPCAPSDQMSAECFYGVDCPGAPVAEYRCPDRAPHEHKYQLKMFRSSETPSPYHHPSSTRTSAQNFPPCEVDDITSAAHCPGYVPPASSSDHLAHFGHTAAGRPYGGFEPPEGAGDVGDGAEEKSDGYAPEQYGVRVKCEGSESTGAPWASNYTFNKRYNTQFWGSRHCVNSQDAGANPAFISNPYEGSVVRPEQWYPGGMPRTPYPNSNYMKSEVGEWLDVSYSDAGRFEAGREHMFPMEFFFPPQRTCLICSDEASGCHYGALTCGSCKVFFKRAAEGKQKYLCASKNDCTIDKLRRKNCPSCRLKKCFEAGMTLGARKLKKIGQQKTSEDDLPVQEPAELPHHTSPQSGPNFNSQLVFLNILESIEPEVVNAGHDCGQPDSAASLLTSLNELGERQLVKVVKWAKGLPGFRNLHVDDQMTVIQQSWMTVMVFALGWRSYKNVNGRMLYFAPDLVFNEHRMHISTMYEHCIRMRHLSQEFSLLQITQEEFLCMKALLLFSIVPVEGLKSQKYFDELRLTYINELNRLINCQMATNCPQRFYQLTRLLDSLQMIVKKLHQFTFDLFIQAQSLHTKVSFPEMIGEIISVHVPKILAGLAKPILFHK
# [4] = molecular target: T2, medaka ARβ (mArβ); test: Medaka ARβ reporter gene assay, antagonist assay; type: cell-based, Japanese medaka (Oryzias latipes)
# [5] = system: Japanese medaka (Oryzias latipes); test: Fish Short‐Term Reproduction Assay; type: in vivo; settings: for GSI Female / GSI Male / HSI Female / HSI Male / Length Female / Length Male / Weight Female / Weight Male: completion of exposure
# [6] = system: Japanese medaka; settings: 12 h after fertilization to 101 days of age; ref Seki, Yokota, Matsubara, et al. (2003); cited from earlier work
# [7] = 940 μg/L measured, 21 d, sig. ↓ vs control
# [8] = measured concentration 58.4 μg/L
# [9] = measured concentration 227 μg/L
# [10] = measured concentration 940 μg/L
smiles,measurement,setting,value
"CCC(C)(C)c1ccc(O)cc1 [Chemical 4tPP, 4‐tert‐Pentylphenol]",In vitro positive: Esr,[1],Esr
same,Antagonistic activity,[2],NE (MAC = 1.0 × 10^−5 M)^(B)
same,Agonistic activity,[3],NE (MAC = 1.0 × 10^−4 M)
same,Antagonistic activity IC30,[4]; 11‐KT spiked at 50 nM (D),IC30 = 1.7 × 10^−5 M^(D)
same,In vitro positive: aAr,[4]; mode of action in which IC50 or IC30 was obtained in RGA,aAr
same,Antagonistic activity on mArβ (in words),[4]; transcriptional activity on mArβ by 11KT,inhibitory potency
same,Fertility rate,"[5]; 58.4 μg/L measured, 21 d",94 ± 1.7%
same,"Hepatic VTG, female","[5]; 58.4 μg/L measured, 21 d","2,930 ± 737 ng/mg‐liver"
same,Mortality,"[5]; 58.4 μg/L measured, 21 d",4.2%
same,"Mortality, number of dead fish","[5]; 58.4 μg/L measured, 21 d",1
same,Number of fertilized eggs (per female per day),"[5]; 58.4 μg/L measured, 21 d",20 ± 3.2
same,Number of total eggs (per female per day),"[5]; 58.4 μg/L measured, 21 d",21 ± 3.1
same,SSC female (joint plates with papillary processes),"[5]; 58.4 μg/L measured, 21 d",0 ± 0
same,"Hepatic VTG, male","[5]; 58.4 μg/L measured, 21 d, sig. ↑ vs control",970 ± 858 ng/mg‐liver
same,Fertility rate,"[5]; 227 μg/L measured, 21 d",94 ± 2.5%
same,"Hepatic VTG, female","[5]; 227 μg/L measured, 21 d","3,070 ± 686 ng/mg‐liver"
same,Mortality,"[5]; 227 μg/L measured, 21 d",4.2%
same,"Mortality, number of dead fish","[5]; 227 μg/L measured, 21 d",1
same,Number of fertilized eggs (per female per day),"[5]; 227 μg/L measured, 21 d",19 ± 2.9
same,Number of total eggs (per female per day),"[5]; 227 μg/L measured, 21 d",20 ± 2.7
same,SSC female (joint plates with papillary processes),"[5]; 227 μg/L measured, 21 d",0 ± 0
same,"Hepatic VTG, male","[5]; 227 μg/L measured, 21 d, sig. ↑ vs control","3,700 ± 2,300 ng/mg‐liver"
same,Fertility rate,"[5]; 940 μg/L measured, 21 d",81 ± 8.9%
same,Mortality,"[5]; 940 μg/L measured, 21 d",13%
same,"Mortality, number of dead fish","[5]; 940 μg/L measured, 21 d",3
same,SSC female (joint plates with papillary processes),"[5]; 940 μg/L measured, 21 d",0 ± 0
same,"Hepatic VTG, female","[5]; 940 μg/L measured, 21 d, sig. ↑ vs control","8,100 ± 3,340 ng/mg‐liver"
same,Number of fertilized eggs (per female per day),[5]; [7],13 ± 3.5
same,Number of total eggs (per female per day),[5]; [7],16 ± 4.7
same,Change of hepatic VTG levels in females (in words),[5]; 21 d,significant increase
same,"Fecundity, number of total eggs (in words)",[5]; 21 d,statistically significant decrease
same,"LOEC, elevated hepatic VTG in males",[5]; 21 d,58.4 µg/L
same,LOECREPRO,[5]; LOEC on reproduction (fecundity and/or fertility),940 µg/L
same,minimal effective concentration,"[5]; Oryzias latipes, 504 h, read-out: LOECmVTG",0.0584 µg/mL
same,Fertility rate (in words),[5]; chemicals with significant decrease of number of total eggs,no significant effect
same,LOECREPRO (reduction in fecundity or fertility),[5]; concentrations without overt toxicity,940 µg/L
same,LOECTOX,[5]; lowest observed effect concentration on mortality,ND (>940) μg/L
same,GSI Female,[5]; [8],10.0 ± 0.6%
same,GSI Male,[5]; [8],0.89 ± 0.11%
same,HSI Female,[5]; [8],4.3 ± 0.50%
same,HSI Male,[5]; [8],2.3 ± 0.18%
same,Length Female,[5]; [8],36.0 ± 0.5 mm
same,Length Male,[5]; [8],37.8 ± 1.2 mm
same,Weight Female,[5]; [8],558 ± 48 mg
same,Weight Male,[5]; [8],590 ± 39 mg
same,GSI Female,[5]; [9],9.9 ± 1.0%
same,GSI Male,[5]; [9],0.73 ± 0.16%
same,HSI Female,[5]; [9],4.2 ± 0.44%
same,HSI Male,[5]; [9],2.2 ± 0.33%
same,Length Female,[5]; [9],35.5 ± 0.7 mm
same,Length Male,[5]; [9],36.2 ± 0.6 mm
same,Weight Female,[5]; [9],523 ± 48 mg
same,Weight Male,[5]; [9],546 ± 23 mg
same,GSI Female,[5]; [10],8.9 ± 1.2%
same,GSI Male,[5]; [10],0.73 ± 0.13%
same,HSI Female,[5]; [10],3.9 ± 0.73%
same,HSI Male,[5]; [10],3.6 ± 0.50%
same,Length Female,[5]; [10],36.1 ± 1.6 mm
same,Length Male,[5]; [10],35.6 ± 0.8 mm
same,Weight Female,[5]; [10],588 ± 130 mg
same,Weight Male,[5]; [10],509 ± 47 mg
same,LOEC on abnormal sexual differentiation,[6],224 µg/L
same,LOEC on hepatic VTG induction,[6],≤ 51.1 µg/L
same,LOEC on reproductive impairment,[6],224 µg/L
